Patent publication US20100249302A1, “LIQUID COMPOSITION CONTAINING PERFLUORO-CHLOROETHER SOLVENT” (FUJIFILM CORPORATION, priority 2009, published 2010)

Experiments:
[1] = Solubility of coating-composition components in FC-72 (comparative coating examples); details: label = solute, solvent = FC-72; coating composition preparation
[2] = Solubility of FC-72 (perfluorohexane) in the fluorine-containing solvents; type: physicochemical; details: for Solubility (% by weight) FC-72 (Fluorine Content: 79% by weight): Table 1, solute FC-72 dissolved in the solvent; for ability of the solvent to dissolve FC-72: label = solvent, solute = FC-72
[3] = Measurement of solubility of compound (17) (fluorine-free organic compound) in fluorine-containing solvents; details: Table 1; solute compound (17) dissolved in the solvent
Method: The resulting solution is diluted with deutrochloroform, followed by measuring ^1H-NMR.

| SMILES | solubility in FC-72 [1] | Solubility (% by weight) FC-72 (Fluorine Content: 79% by weight) [2] | ability of the solvent to dissolve FC-72 [2] | Solubility (% by weight) Compound (17) (Fluorine Content: 0% by weight) [3] | Solubility (% by weight) FC-72 [2] |
| --- | --- | --- | --- | --- | --- |
| OCC(F)(F)C(F)(F)C(F)(F)C(F)(F)C(F)(F)C(F)(F)C(F)(F)C(F)(F)CO [1H,1H,10H,10H-hexadecafluoro-1,10-decanediol] | not completely soluble |  |  |  |  |
| CCO[Si](CCCN=C=O)(OCC)OCC [3-(triethoxysilyl)propyl isocyanate] | not completely soluble |  |  |  |  |
| FC(F)(Cl)C(F)(F)OC(F)(Cl)C(Cl)(Cl)Cl (stereo not shown) [Compound (2)] |  | soluble in any | can dissolve FC-72 in any proportion | soluble in any |  |
| FC(F)(Cl)C(F)(F)OC(F)(Cl)C(F)(Cl)Cl (stereo not shown) [Compound (2′)] |  |  | can dissolve FC-72 in any proportion |  | soluble in any |
| FC(F)(Cl)C(F)(OC(F)(Cl)C(Cl)(Cl)Cl)C(F)(F)Cl (stereo not shown) [Compound (3)] |  | soluble in any | can dissolve FC-72 in any proportion | soluble in any |  |
| FC(Cl)(Cl)C(F)(F)OC(F)(Cl)C(F)(Cl)Cl (stereo not shown) [Compound (3′)] |  |  | can dissolve FC-72 in any proportion |  | soluble in any |
| FC(Cl)(Cl)C(F)(F)OC(F)(Cl)C(Cl)(Cl)Cl (stereo not shown) [Compound (4)] |  | soluble in any | can dissolve FC-72 in any proportion | soluble in any |  |
| FC(Cl)(Cl)C(F)(Cl)OC(F)(F)C(Cl)(Cl)Cl (stereo not shown) [Compound (4′)] |  |  | can dissolve FC-72 in any proportion |  | soluble in any |
| FC(F)(OC(F)(Cl)C(Cl)(Cl)Cl)C(Cl)(Cl)Cl (stereo not shown) [Compound (5)] |  | soluble in any | can dissolve FC-72 in any proportion | soluble in any |  |
| FC(F)(Cl)C(F)(OC(F)(Cl)C(F)(Cl)Cl)C(F)(F)Cl (stereo not shown) [Compound (5′)] |  |  | can dissolve FC-72 in any proportion |  | soluble in any |
